Holding throughout (test): Antibacterial effectiveness in a standard microtitre test (MIC)
What all share (assay type): cell-based

One experiment deals with Klebsiella aerogenes A. The text has this: (§1) Antibacterial effectiveness of the compounds of the Examples in a standard microtitre test.
Experiment [1] has as its system Staphylococcus aureus 1517.
Description: as §1

The next experiment deals with Escherichia coli JT 4 R+.
Description: as §1

A further experiment concerns Escherichia coli JT 39. As to conditions: JT39.
Description: as §1

The test system of experiment [2] is Staphylococcus aureus Oxford.
Description: as §1

Another experiment concerns Escherichia coli 0111.
Description: as §1

Experiment [3] relates to Salmonella typhimurium CR10. The conditions noted are these: Salmonella enterica.
Description: as §1

The next experiment has as its system Proteus mirabilis C977.
Description: as §1

In the next experiment the test system is Proteus morganii I580. The conditions noted are these: Morganella morganii.
Description: as §1

The next experiment has as its system Bacillus subtilis A.
Description: as §1

Experiment [4] concerns Klebsiella aerogenes Ba 95 R+.
Description: as §1

For another experiment, the system named is Escherichia coli ESS.
Description: as §1

Another experiment has as its system Proteus vulgaris W091.
Description: as §1

Another experiment relates to Serratia marcescens US20.
Description: as §1

The test system of another experiment is Pseudomonas aeruginosa A.
Description: as §1

Another experiment deals with Citrobacter freundii E8.
Description: as §1

A further experiment deals with Enterobacter cloacae N1.
Description: as §1

A further experiment deals with Shigella sonnei MB 11967. The conditions noted are these: MB11967.
Description: as §1

For the next experiment, the system named is Proteus rettgeri WM16. The conditions noted are these: Providencia rettgeri.
Description: as §1

The test system of another experiment is Streptococcus faecalis I. The conditions noted are these: Enterococcus faecalis.
Description: as §1

Experiment [5] relates to Streptococcus pyogenes CN10.
Description: as §1

The test system of experiment [6] is Streptococcus pneumoniae CN33.
Description: as §1

The test system of experiment [7] is Staphylococcus aureus Russell.
Description: as §1

[8] abbreviates: Staphylococcus aureus Oxford, read-out: MIC.
The mark [9] stands for this setting: Salmonella typhimurium CR10, read-out: MIC.
[10] abbreviates: Proteus morganii I580, read-out: MIC.
The mark [11] stands for this setting: Bacillus subtilis A, read-out: MIC.
[12] abbreviates: Pseudomonas aeruginosa A, read-out: MIC.
Where [13] appears, read: Proteus rettgeri WM16, read-out: MIC.
Where [14] appears, read: Streptococcus faecalis I, read-out: MIC.

Values after ≈ are worked out from the molar mass of the structure shown. Read-outs that look alike come from different tables or passages of the source.

What is called MIC is the smallest concentration in the dilution series that meets the test's criterion for growth inhibition. Consider `CC(=O)N/C=C/SC1=C(C(=O)O)N2C(=O)[C@H]([C@@H](C)N)[C@H]2C1` [Example 2, (5R,6R)-3-[E-2-acetamidoethenylthio]-6-[(R)-1-aminoethyl]-7-oxo-1-azabicyclo[3.2.0]hept-2-ene-2-carboxylic acid], for which the minimal inhibitory concentration (MIC) was 0.5 µg/mL (≈ 1.61 µM) against Klebsiella aerogenes A (Klebsiella aerogenes); 8 µg/mL (≈ 25.7 µM) in [1] (read-out: MIC); 2 µg/mL (≈ 6.42 µM) against Escherichia coli JT 4 R+; 0.5 µg/mL (≈ 1.61 µM) against Escherichia coli JT 39 (Escherichia coli); 0.5 µg/mL (≈ 1.61 µM) in [2] (setting [8]); 0.5 µg/mL (≈ 1.61 µM) in the experiment on Escherichia coli 0111. Moreover, the MIC in [3] (setting [9]) came to 1 µg/mL (≈ 3.21 µM); with Proteus mirabilis C977 (read-out: MIC), 4 µg/mL (≈ 12.8 µM); in the experiment with Proteus morganii I580 (setting [10]), 8 µg/mL (≈ 25.7 µM); in the experiment with Bacillus subtilis A (setting [11]), 0.2 µg/mL (≈ 0.642 µM); in experiment [4] it was 2 µg/mL (≈ 6.42 µM); in the experiment on Escherichia coli ESS (Escherichia coli) it was 0.2 µg/mL (≈ 0.642 µM). Moreover, the MIC in the experiment on Proteus vulgaris W091 (read-out: MIC) was found to be 4 µg/mL (≈ 12.8 µM); in the experiment with Serratia marcescens US20 (read-out: MIC), 2 µg/mL (≈ 6.42 µM); in the experiment on Pseudomonas aeruginosa A (setting [12]), 62 µg/mL (≈ 199 µM); in the experiment on Citrobacter freundii E8 (read-out: MIC), 2 µg/mL (≈ 6.42 µM); in the experiment on Enterobacter cloacae N1 (read-out: MIC), 2 µg/mL (≈ 6.42 µM); against Shigella sonnei MB 11967 it was 1 µg/mL (≈ 3.21 µM). The MIC with Proteus rettgeri WM16 (setting [13]) and with Streptococcus faecalis I (setting [14]) was 4 µg/mL (≈ 12.8 µM) in each case.
Regarding `CC(=O)N/C=C/SC1=C(C(=O)[O-])N2C(=O)[C@H]([C@@H](C)O)[C@H]2C1.[Na+]` [Example 5, Sodium (5R,6S)-3-(E-2-acetamidoethenylthio)-6-[(R)-1-hydroxyethyl]-7-oxo-1-azabicyclo[3.2.0]hept-2-ene-2-carboxylate], the MIC was 0.5 µg/mL against Klebsiella aerogenes A (Klebsiella aerogenes); 0.2 µg/mL against Escherichia coli JT 39 (Escherichia coli); 0.5 µg/mL in [5]; 0.2 µg/mL in experiment [6]; 0.2 µg/mL in [2] (Staphylococcus aureus); no more than 0.5 µg/mL with Escherichia coli 0111. The MIC in [3] (TYPHIMURIUM) was 0.5 µg/mL; in the experiment on Proteus mirabilis C977, 2 µg/mL; in the experiment with Proteus morganii I580 (I580), 2 µg/mL; in the experiment with Bacillus subtilis A (Bacillus subtilis) it was 0.2 µg/mL; with Escherichia coli ESS (Escherichia coli) it was greater than 0.2 µg/mL; in the experiment on Proteus vulgaris W091, 2 µg/mL. The minimum inhibitory concentration (MIC) was 2 µg/mL in the experiment on Serratia marcescens US20; 125 µg/mL against Pseudomonas aeruginosa A (Pseudomonas aeruginosa); no more than 0.5 µg/mL in experiment [7] (Staphylococcus aureus); 0.5 µg/mL against Citrobacter freundii E8; 1 µg/mL in the experiment on Enterobacter cloacae N1; no more than 1 µg/mL against Shigella sonnei MB 11967. Moreover, the figures for the minimal inhibitory concentration (MIC) in the experiment on Proteus rettgeri WM16 (WM16) and in the experiment on Streptococcus faecalis I were 2 µg/mL and 8 µg/mL, respectively.
Regarding `CC(=O)N/C=C/SC1=C(C(=O)[O-])N2C(=O)[C@H]([C@@H](C)OC=O)[C@H]2C1.[Na+]` [Example 6, Sodium (5R,6S)-3-(E-2-acetamidoethenylthio)-6-[(R)-1-formyloxyethyl]-7-oxo-1-azabicyclo[3.2.0]hept-2-ene-2-carboxylate], the MIC was found to be 1.6 µg/mL against Klebsiella aerogenes A (Klebsiella aerogenes); 12.5 µg/mL in experiment [1]; 0.8 µg/mL against Escherichia coli JT 39 (Escherichia coli); 0.2 µg/mL in experiment [5]; 0.1 µg/mL in experiment [6]; 0.8 µg/mL in experiment [2] (Staphylococcus aureus). The MIC in the experiment with Escherichia coli 0111 was determined as 1.6 µg/mL; in [3] (TYPHIMURIUM) it was 3.1 µg/mL; with Proteus mirabilis C977, 6.2 µg/mL; with Proteus morganii I580 (I580), 6.2 µg/mL; in the experiment on Bacillus subtilis A (Bacillus subtilis), 0.8 µg/mL; with Escherichia coli ESS (Escherichia coli), 0.4 µg/mL. The minimum inhibitory concentration (MIC) was determined as 3.1 µg/mL in the experiment with Proteus vulgaris W091; 3.1 µg/mL against Serratia marcescens US20; 100 µg/mL in the experiment with Pseudomonas aeruginosa A (Pseudomonas aeruginosa); 0.4 µg/mL in [7] (Staphylococcus aureus); 1.6 µg/mL in the experiment on Citrobacter freundii E8; 6.2 µg/mL in the experiment with Enterobacter cloacae N1. Besides, the MIC in the experiment with Shigella sonnei MB 11967 was 1.6 µg/mL; against Proteus rettgeri WM16 (WM16) it was 3.1 µg/mL; with Streptococcus faecalis I it was 12.5 µg/mL.
As to `CC(=O)NCCSC1=C(C(=O)O)N2C(=O)[C@H]([C@@H](C)N)[C@H]2C1` [Example 8, (5R,6R)-3-(2-Acetamidoethylthio)-6-[(R)-1-aminoethyl]-7-oxo-1-azabicyclo[3.2.0]hept-2-ene-2-carboxylic acid], the minimum inhibitory concentration (MIC) with Klebsiella aerogenes A (Klebsiella aerogenes A, read-out: MIC) was determined as 8 µg/mL (≈ 25.5 µM); in experiment [1] (read-out: MIC), 31 µg/mL (≈ 98.9 µM); with Escherichia coli JT 39 (Escherichia coli JT 39, read-out: MIC), 8 µg/mL (≈ 25.5 µM); in experiment [5] (read-out: MIC), 2 µg/mL (≈ 6.38 µM); in experiment [6] (read-out: MIC), 2 µg/mL (≈ 6.38 µM); in experiment [2] (setting [8]), 4 µg/mL (≈ 12.8 µM). The minimal inhibitory concentration (MIC) in the experiment on Escherichia coli 0111 stood at 16 µg/mL (≈ 51.1 µM); in experiment [3] (setting [9]), 8 µg/mL (≈ 25.5 µM); with Proteus mirabilis C977 (read-out: MIC) it was 31 µg/mL (≈ 98.9 µM); in the experiment with Proteus morganii I580 (setting [10]), 16 µg/mL (≈ 51.1 µM); in the experiment with Bacillus subtilis A (setting [11]), 4 µg/mL (≈ 12.8 µM); with Escherichia coli ESS (Escherichia coli ESS, read-out: MIC), 4 µg/mL (≈ 12.8 µM). The minimum inhibitory concentration (MIC) in the experiment on Proteus vulgaris W091 (read-out: MIC) was 16 µg/mL (≈ 51.1 µM); in the experiment with Serratia marcescens US20 (read-out: MIC), 16 µg/mL (≈ 51.1 µM); with Pseudomonas aeruginosa A (setting [12]) it was 62 µg/mL (≈ 198 µM); in experiment [7] (Staphylococcus aureus Russell, read-out: MIC), 2 µg/mL (≈ 6.38 µM); with Citrobacter freundii E8 (read-out: MIC), 16 µg/mL (≈ 51.1 µM); with Enterobacter cloacae N1 (read-out: MIC), 16 µg/mL (≈ 51.1 µM). The MIC was 8 µg/mL (≈ 25.5 µM) against Shigella sonnei MB 11967, 16 µg/mL (≈ 51.1 µM) in the experiment on Proteus rettgeri WM16 (setting [13]) and 16 µg/mL (≈ 51.1 µM) in the experiment on Streptococcus faecalis I (setting [14]).

The values are drawn from patent US4438036A, “β-Lactam antibiotics their preparation and their use” (priority 1980, dated 1984).
